Measured values published in patent publication US20160158189A1, “SENSITIZATION OF CANCER CELLS TO APOPTOSIS INDUCTION BY FLAVAGLINES AND 5-HYDROXY-FLAVONES” (DEUTSCHES KREBSFORSCHUNGSZENTRUM, priority 2013, published 2016).

What was measured:
Mcl-1 = test: Western blot analysis of Mcl-1 expression; format: cell-based, human; details: for Mcl-1 protein expression: 50 μM flavone
Source text: For each sample, 1×10^7 cells were lysed as previously described. 23 Equal amounts of protein were separated on 5-13% SDS-PAGE depending on the molecular sizes of the proteins and blotted onto a nitrocellulose membrane (Amersham Biosciences, Little Chalfon, UK) as previously described. 23 The following antibodies were used: Bad, Bax, Bcl-xL, Bcl-w, XIAP from Cell Signaling Technology, Danvers, USA; Bcl-2 (sc-509) and Mcl-1 (sc-819) from Santa Cruz Biotechnology, Heidelberg, Germany; Tubulin and actin from Sigma, Saint Louis, USA.

CEM cells = test: Apoptotic cell death by DNA fragmentation, CEM; format: cell-based, human; details: for effect on ABT-263-induced apoptosis: ABT-263 plus 10 μM flavone, 30 h
Procedure: (§1) The human malignant cell lines used in this study are the T cell leukemic cell lines CEM, Molt-4 and Jurkat (J16), the HL cell line KM-H2, the cervix adenocarcinoma cell line HeLa, the melanoma cell line A375, the hepatocellular carcinoma cell line HepG2, the pancreatic carcinoma cell line MiaPaca, the breast cancer cell line MCF-7, the prostatic cancer cell line PC3 and the colon carcinoma cell line HCT116. All cells were cultured in RPMI 1640 or DMEM medium (GIBCO laboratories, Grand Island, USA), supplemented with 10% FCS, 100 Units/ml penicillin (GIBCO), 100 μg/m1 streptomycin (GIBCO) and 2 mM L-glutamine (GIBCO) at 37° C. and 5%. Wogonin (BIOTREND Chemicals AG, Wangen, Switzerland), apigenin, chrysin, luteolin and baicalein (Sigma, St. Louis, USA) were solved in dimethyl sulfoxide (DMSO; Roth, Karlsruhe, Germany) at a stock concentration of 50 mM. Cells were treated with different concentrations of different flavones or ABT-263 (Selleck Chemicals, Houston, USA) for 24 to 48 h. Apoptotic cell death was examined by analysis of DNA fragmentation as previously described 23 (Fas et al.,2006, Blood 108: 3700-6). Results are presented as % specific DNA fragmentation using the formula: (percentage of experimental apoptosis-percentage of spontaneous apoptosis)/(100-percentage of spontaneous apoptosis)×100.

Jurkat (J16) cells = test: Apoptotic cell death by DNA fragmentation, Jurkat; format: cell-based, human
Procedure: as §1

Molt-4 cells = test: Apoptotic cell death by DNA fragmentation, Molt-4; format: cell-based, human
Procedure: as §1

[1] = test system: breast cancer cell line MCF-7; test: Apoptotic cell death by DNA fragmentation, MCF-7; format: cell-based, human; details: ABT-263 plus 50 μM wogonin, 48 h
Procedure: as §1

[2] = test system: prostatic cancer cell line PC3; test: Apoptotic cell death by DNA fragmentation, PC3; format: cell-based, human; details: ABT-263 plus 50 μM wogonin, 48 h
Procedure: as §1

[3] = test system: proliferating normal peripheral blood T cells; test: Apoptotic cell death by DNA fragmentation, proliferating normal T cells; format: cell-based; details: ABT-263 with wogonin, four healthy donors
Procedure: (§2) Normal T cells were isolated from peripheral blood of healthy donors and activated to proliferate as described in the Materials and Methods. The proliferating T cells were treated with different concentrations of ABT-263 in the absence or presence of wogonin as indicated. Apoptotic cell death was determined by DNA fragmentation. Results are presented as pooled data from four independent donors. (B) Proliferating normal T cells express higher levels of Mcl-1 and Bcl-2 than leukemic Jurkat and Molt-4 T cells. Total cell lysates of activated T cells from three healthy donors were compared with leukemic cells for the expression levels of Mcl-1, Bcl-2, Bcl-xL and Bcl-w. CDK6 is known to be over-expressed in many tumor cells and was used as a marker for malignant cells. Representative blots from two independent experiments are shown. […] Human platelets in 10% FCS were treated with different concentrations of ABT-263 in the absence or presence of wogonin as indicated. After 1 h treatment, apoptotic cell death was determine by staining with annexin V/FITC. Results are average of two independent assays.
Human peripheral blood T cells were prepared as described previously 23 and were more than 90% CD3 positive. For generation of proliferating T cells, freshly isolated T cells were cultured at 2×10^6 cells/ml and were activated with […] PHA overnight. Activated T cells were then washed three times and cultured for additional 5 days in the presence of 25 U/ml IL-2. Platelets were prepared as described in Vogler et al., 2011, Blood 117: 7145-54.
Wogonin (BIOTREND Chemicals AG, Wangen, Switzerland), apigenin, chrysin, luteolin and baicalein (Sigma, St. Louis, USA) were solved in dimethyl sulfoxide (DMSO; Roth, Karlsruhe, Germany) at a stock concentration of 50 mM. Cells were treated with different concentrations of different flavones or ABT-263 (Selleck Chemicals, Houston, USA) for 24 to 48 h. Apoptotic cell death was examined by analysis of DNA fragmentation as previously described 23 (Fas et al.,2006, Blood 108: 3700-6). […]

[4] = test system: colon carcinoma cell line HCT116; test: Apoptotic cell death by DNA fragmentation, HCT116; format: cell-based, human; details: ABT-263 plus 50 μM wogonin, 48 h
Procedure: as §1

[5] = test system: ABT-263-resistant CEM (CEM-R); test: Apoptotic cell death by DNA fragmentation, ABT-263-resistant CEM; format: cell-based, human; details: CEM-R; ABT-263 with wogonin
Procedure: (§3) Wogonin (BIOTREND Chemicals AG, Wangen, Switzerland), apigenin, chrysin, luteolin and baicalein (Sigma, St. Louis, USA) were solved in dimethyl sulfoxide (DMSO; Roth, Karlsruhe, Germany) at a stock concentration of 50 mM. Cells were treated with different concentrations of different flavones or ABT-263 (Selleck Chemicals, Houston, USA) for 24 to 48 h. Apoptotic cell death was examined by analysis of DNA fragmentation as previously described 23 (Fas et al.,2006, Blood 108: 3700-6). Results are presented as % specific DNA fragmentation using the formula: (percentage of experimental apoptosis-percentage of spontaneous apoptosis)/(100-percentage of spontaneous apoptosis)×100.

[6] = test system: ABT-263-resistant Jurkat (Jurkat-R); test: Apoptotic cell death by DNA fragmentation, ABT-263-resistant Jurkat; format: cell-based, human; details: Jurkat-R; ABT-263 with wogonin
Procedure: as §3

Human platelets = test: Platelet apoptotic cell death by annexin V/FITC staining; format: cell-based; details: ABT-263 with wogonin, 1 h
Procedure: as §2
Human peripheral blood T cells were prepared as described previously 23 and were more than 90% CD3 positive. For generation of proliferating T cells, freshly isolated T cells were cultured at 2×10^6 cells/ml and were activated with 1 mg/ml PHA overnight. […]

CEM tumors = test: CEM xenograft in immunodeficient mice; format: in vivo; details: Rag2-/-/Il2rg-/- mice, s.c. CEM; ABT-263 50 mg/kg p.o. and/or wogonin 50 mg/kg i.p.
Procedure: Immunodeficient mice (Rag2−/−/II2rg−/−) were implanted subcutaneously in the dorsal flank region with CEM (5×10^7 cells). After the tumors reached to approximate 35 mm3, tumor size matched mice were treated with ABT-263 (50 mg/kg, once in each third or fourth day) in the presence or absence of 50 mg/kg wogonin. ABT-263 was formulated according to the protocol previously described 9 and administered p.o. Wogonin dissolved in DMSO was diluted in sunflower oil and administered i.p. For combination studies, ABT-263 was given 2 h before wogonin. The control group was treated in an analogous manner with the vehicle. The tumor size was measured with a micrometer caliper two to three times weekly and the tumor volume (V) was calculated by the formula V=(width2×length)/2. All protocols using and maintaining animals were approved by the German Animal Protection Authority (Office Regierungsprasidium Karlsruhe) in Karlsruhe.

[7] = test system: cervix adenocarcinoma cell line HeLa; test: Apoptotic cell death by DNA fragmentation, HeLa; format: cell-based, human; details: ABT-263 plus 50 μM wogonin, 48 h
Procedure: as §1

[8] = test system: hepatocellular carcinoma cell line HepG2; test: Apoptotic cell death by DNA fragmentation, HepG2; format: cell-based, human; details: HepG2; ABT-263 plus 50 μM wogonin, 48 h
Procedure: as §1

melanoma cell line A375 = test: Apoptotic cell death by DNA fragmentation, A375; format: cell-based, human; details: ABT-263 plus 50 μM wogonin, 48 h
Procedure: as §1

[9] = Jurkat 16, ABT-199 with wogonin
[10] = ABT-263 plus different concentrations of wogonin, 24 h
[11] = wogonin alone at the concentrations used for combination, 24 h

O=c1cc(-c2ccc(O)cc2)oc2cc(O)cc(O)c12 [Apigenin]
Mcl-1 protein expression (Mcl-1; CEM, 8 h): Down-regulation of Mcl-1 protein expression | effect on ABT-263-induced apoptosis (CEM cells): enhance ABT-263-induced apoptosis in CEM cells in a dose-dependent manner

CC1(C)CCC(CN2CCN(c3ccc(C(=O)NS(=O)(=O)c4ccc(NCC5CCOCC5)c([N+](=O)[O-])c4)c(Oc4cnc5[nH]ccc5c4)c3)CC2)=C(c2ccc(Cl)cc2)C1 [ABT-199, 4-[4-[[2-(4-chlorophenyl)-4,4-dimethyl-1-cyclohexen-1-yl]methyl]-1-piperazinyl]-N-[[3-nitro-4-[[(tetrahydro-2H-pyran-4-yl)methyl]amino]phenyl]sulfonyl]-2-(1H-pyrrolo[2,3-b]pyridin-5-yloxy)-Benzamide]
EC50 (Jurkat (J16) cells; Homo sapiens, Jurkat 16, ABT-199 alone, read-out: concentration inducing 50% apoptotic cell death): 5 to 10 µM | EC50 (Molt-4 cells; Homo sapiens, ABT-199 alone, read-out: concentration inducing 50% apoptotic cell death): 5 to 10 µM | EC50 (CEM cells; Homo sapiens, CCRF-CEM, ABT-199 alone, read-out: concentration inducing 50% apoptotic cell death): 5 to 10 µM

O=c1cc(-c2ccc(O)c(O)c2)oc2cc(O)cc(O)c12 [luteolin]
Mcl-1 protein expression (Mcl-1; CEM, 8 h): Down-regulation of Mcl-1 protein expression | effect on ABT-263-induced apoptosis (CEM cells): enhance ABT-263-induced apoptosis in CEM cells in a dose-dependent manner

O=c1cc(-c2ccccc2)oc2cc(O)c(O)c(O)c12 [baicalein]
Mcl-1 protein expression (Mcl-1; CEM, 8 h): Down-regulation of Mcl-1 protein expression | effect on ABT-263-induced apoptosis (CEM cells): enhance ABT-263-induced apoptosis in CEM cells in a dose-dependent manner

COc1c(O)cc(O)c2c(=O)cc(-c3ccccc3)oc12 [wogonin, 5,7-dihydroxy-8-methoxy-2-phenyl-4H-chromen-4-one]
effect on ABT-263-mediated apoptotic cell death [1]: dose-dependent increase | Mcl-1 expression (Mcl-1; ABT-263-resistant Jurkat and CEM, wogonin): significantly inhibited Mcl-1 expression | Mcl-1 expression (Mcl-1; CEM, Jurkat and Molt-4, 50 μM wogonin, 8 h): down-regulation of Mcl-1 expression | Mcl-1 expression (Mcl-1; CEM, Jurkat and Molt-4, 50 μM wogonin, 8 h, listed as Wogonin): down-regulates Mcl-1 expression | Mcl-1 expression (Mcl-1; all tumor cell lines tested other than MiaPaca, 50 μM wogonin, 8 h): down-regulated | reduction of the ABT-199 dose (Jurkat (J16) cells; [9]): approx. 5 fold | sensitization to ABT-199-mediated apoptosis (Jurkat (J16) cells; [9]): sensitized | effect on killing efficacy of ABT-263 (Jurkat (J16) cells; Jurkat, ABT-263 plus different concentrations of wogonin, 24 h): enhanced the killing efficacy of ABT-263 in a dose-dependent manner | reduction of ABT-263 dose required for inducing 50-70% cell death (Jurkat (J16) cells; Jurkat, in presence of wogonin): approximately 10 times | cell death by wogonin alone (Jurkat (J16) cells; Jurkat, wogonin alone at the concentrations used for combination, 24 h): only minimal cell death | reduction of the ABT-199 dose (Molt-4 cells; ABT-199 with wogonin): approx. 5 fold | sensitization to ABT-199-mediated apoptosis (Molt-4 cells; ABT-199 with wogonin): sensitized | effect on killing efficacy of ABT-263 (Molt-4 cells; [10]): enhanced the killing efficacy of ABT-263 in a dose-dependent manner | reduction of ABT-263 dose required for inducing 50-70% cell death (Molt-4 cells; in presence of wogonin): approximately 10 times | cell death by wogonin alone (Molt-4 cells; [11]): only minimal cell death | effect on ABT-263-mediated apoptotic cell death [2]: dose-dependent increase | effect on toxicity of ABT-263 to normal proliferating T cells [3]: did not enhance the toxicity of ABT-263 | effect on toxicity of ABT-263 to normal proliferating T cells ([3]; listed as Wogonin): does not potentiate the toxicity of ABT-263 | effect on ABT-263-mediated apoptotic cell death [4]: dose-dependent increase | re-sensitization to ABT-263-induced apoptotic cell death [5]: re-sensitized to ABT-263 treatment | re-sensitization to ABT-263-induced apoptotic cell death [6]: re-sensitized to ABT-263 treatment | reduction of the ABT-199 dose (CEM cells; ABT-199 with wogonin): approx. 5 fold | sensitization to ABT-199-mediated apoptosis (CEM cells; ABT-199 with wogonin): sensitized | effect on killing efficacy of ABT-263 (CEM cells; [10]): enhanced the killing efficacy of ABT-263 in a dose-dependent manner | reduction of ABT-263 dose required for inducing 50-70% cell death (CEM cells; in presence of wogonin): approximately 10 times | cell death by wogonin alone (CEM cells; [11]): only minimal cell death | effect on toxicity of ABT-263 to platelets (Human platelets): did not enhance the toxicity of ABT-263 | effect on toxicity of ABT-263 to platelets (Human platelets; listed as Wogonin): does not enhance the toxicity of ABT-263 | tumor growth / tumor response (CEM tumors): no significant inhibition of tumor growth | effect on ABT-263-mediated apoptotic cell death [7]: dose-dependent increase | effect on ABT-263-mediated apoptotic cell death [8]: dose-dependent increase | effect on ABT-263-mediated apoptotic cell death (melanoma cell line A375): dose-dependent increase

O=c1cc(-c2ccccc2)oc2cc(O)cc(O)c12 [chrysin]
Mcl-1 protein expression (Mcl-1; CEM, 8 h): Down-regulation of Mcl-1 protein expression | effect on ABT-263-induced apoptosis (CEM cells): enhance ABT-263-induced apoptosis in CEM cells in a dose-dependent manner
